Experiment [1] concerns the target T1, 5-hydroxytryptamine receptor 2A (Homo sapiens, UniProt P28223). Kind of experiment: Displacement of [3H]Ketanserin from 5-HT2A receptor (unknown origin) assessed as inhibition constant incubated for 90 mins by MicroBeta scintillation counting method. In general terms: In a radioligand displacement assay an active substance lowers the binding of a labelled ligand.

Experiment [2] has as its target T2, 5-hydroxytryptamine receptor 2B (Homo sapiens, UniProt P41595). Kind of experiment: Displacement of [3H]LSD from 5-HT2B receptor (unknown origin) assessed as inhibition constant incubated for 90 mins by MicroBeta scintillation counting method.
In experiment [3] the target is T3, 5-hydroxytryptamine receptor 2C (Homo sapiens, UniProt P28335).
T3 sequence (P28335 whole entry): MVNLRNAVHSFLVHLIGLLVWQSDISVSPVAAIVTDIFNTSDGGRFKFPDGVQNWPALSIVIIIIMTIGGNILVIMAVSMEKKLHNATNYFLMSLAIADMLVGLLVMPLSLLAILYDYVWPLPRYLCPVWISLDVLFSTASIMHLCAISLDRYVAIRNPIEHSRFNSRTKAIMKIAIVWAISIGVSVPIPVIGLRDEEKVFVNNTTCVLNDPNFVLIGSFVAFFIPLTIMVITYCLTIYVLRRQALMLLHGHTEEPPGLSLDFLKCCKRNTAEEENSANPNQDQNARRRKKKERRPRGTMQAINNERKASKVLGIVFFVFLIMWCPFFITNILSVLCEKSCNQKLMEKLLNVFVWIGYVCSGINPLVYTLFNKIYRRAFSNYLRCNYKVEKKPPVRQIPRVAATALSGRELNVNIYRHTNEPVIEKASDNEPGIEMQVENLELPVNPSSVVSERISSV
As to the kind of experiment: Displacement of [3H]Mesulergine from 5-HT2C receptor (unknown origin) assessed as inhibition constant incubated for 90 mins by MicroBeta scintillation counting method.

Experiment [4] concerns the target Serotonin 2 receptors; 5-HT2a & 5-HT2c (Homo sapiens) (UniProt P28223+P28335). As to the kind of experiment: Selectivity ratio of Ki for 5-HT2A receptor (unknown origin) to Ki for 5-HT2C receptor (unknown origin). The format is protein assay.
For experiment [5], the species on record is Homo sapiens. Kind of experiment: Selectivity ratio of Ki for 5-HT2B receptor (unknown origin) to Ki for 5-HT2C receptor (unknown origin).
Experiment [6] is filed under the species Homo sapiens. As to the kind of experiment: Selectivity ratio of Ki for 5-HT2A receptor (unknown origin) to Ki for 5-HT2B receptor (unknown origin).
For experiment [7], the target named is T1, 5-hydroxytryptamine receptor 2A. Kind of experiment: Antagonist activity at 5-HT2A receptor (unknown origin) incubated for 60 mins followed by 10 mins incubation in dark at room temperature by FLIPR method. In kind it is functional.
The target of experiment [8] is T2, 5-hydroxytryptamine receptor 2B. As to the kind of experiment: Antagonist activity at 5-HT2B receptor (unknown origin) incubated for 60 mins followed by 10 mins incubation in dark at room temperature by FLIPR method. The format is functional.
The target of experiment [9] is T3, 5-hydroxytryptamine receptor 2C. Kind of experiment: Antagonist activity at 5-HT2C receptor (unknown origin) incubated for 60 mins followed by 10 mins incubation in dark at room temperature by FLIPR method. The format is functional.

T2 sequence (P41595 whole entry): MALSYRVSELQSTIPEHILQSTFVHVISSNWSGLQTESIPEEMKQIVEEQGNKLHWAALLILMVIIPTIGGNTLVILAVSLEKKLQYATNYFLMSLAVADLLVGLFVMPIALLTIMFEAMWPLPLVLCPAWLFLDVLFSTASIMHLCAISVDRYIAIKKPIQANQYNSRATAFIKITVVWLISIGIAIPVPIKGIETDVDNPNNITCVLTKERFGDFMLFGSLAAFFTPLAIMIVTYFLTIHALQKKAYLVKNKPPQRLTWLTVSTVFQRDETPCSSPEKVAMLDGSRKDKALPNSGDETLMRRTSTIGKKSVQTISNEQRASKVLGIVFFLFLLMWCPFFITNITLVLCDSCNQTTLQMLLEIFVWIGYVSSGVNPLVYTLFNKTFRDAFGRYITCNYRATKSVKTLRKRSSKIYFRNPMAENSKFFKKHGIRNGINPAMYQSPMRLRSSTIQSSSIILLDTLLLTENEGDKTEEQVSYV
T1 sequence (P28223 whole entry): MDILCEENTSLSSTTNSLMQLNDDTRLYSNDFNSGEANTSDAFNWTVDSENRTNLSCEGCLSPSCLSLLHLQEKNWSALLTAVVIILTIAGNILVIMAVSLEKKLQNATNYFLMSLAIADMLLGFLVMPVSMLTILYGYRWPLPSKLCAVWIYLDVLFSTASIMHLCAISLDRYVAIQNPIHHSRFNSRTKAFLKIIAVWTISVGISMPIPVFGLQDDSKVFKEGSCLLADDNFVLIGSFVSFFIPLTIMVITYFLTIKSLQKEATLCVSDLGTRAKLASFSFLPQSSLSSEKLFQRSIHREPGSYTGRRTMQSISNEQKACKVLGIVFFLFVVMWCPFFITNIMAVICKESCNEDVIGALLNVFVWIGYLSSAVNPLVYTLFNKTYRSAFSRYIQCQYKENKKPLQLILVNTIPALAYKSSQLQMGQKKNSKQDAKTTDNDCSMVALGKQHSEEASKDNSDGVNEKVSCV
Chain of Serotonin 2 receptors; 5-HT2a & 5-HT2c (Homo sapiens) (P28223 whole entry, looked up, one chain of several): as the sequence (P28223 whole entry) above

Consider `COc1cc2c(cc1OC)-c1c(OC)c(OCc3ccc(Br)cc3)cc3c1[C@H](C2)N(C)CC3`, for which the Ki turned out to be 20 nM in experiment [1], 359 nM in experiment [2] and 23 nM in experiment [3]. Also, the figures for the Ratio Ki (in experiment [4]; in the experiment listed under Homo sapiens [5]; in the experiment filed under Homo sapiens [6]) were 0.9, 16 and 0.06, respectively. Moreover, the IC50 came to 162 nM in experiment [7], 3000 nM in [8] and 436 nM in experiment [9].

A word on the Ki: it is a measure of affinity in units of concentration, obtained from inhibition or displacement. A word on the IC50: it is the point on the concentration scale where inhibition reaches its midpoint. A high value points to a need for much substance.

The record behind these values is ChEMBL document CHEMBL5137112, “Semisynthetic Transformations on (+)-Boldine Reveal a 5-HT2A/2CR Antagonist” (J Nat Prod, 2022).
